Like-named read-outs stand apart in the source and are kept apart here.
Assays:
[1] = system: CT26 colorectal cancer model; details: CT26 tumors in BALB/c mice, i.p. on days 8, 10, 12 & 14, day 16, doxorubicin 2 mg/kg, mixture 5.7 + 4 + 12 mg/kg, complex 5 21 mg/kg
Protocol: The experimental protocol consisted of inoculating mice with 1.5 x 10^6 CT26 cells on day 0. When the tumors became palpable, a series of four intraperitoneal (i.p.) injections were carried out on days 8, 10, 12, & 14. On day 16 mice (n = 5) were euthanized and organs including tumors (Figure S37) were collected and analyzed for their metal content via ICP‐MS (Figure 6a). The doxorubicin dosage was based on a previous report.^[ [32] ^]
Procedures were conducted in accordance with the Guide for the Care and Use of Laboratory Animals (U.S. Public Health Service, National Institute of Health) and the protocol for this experiment was approved by the Institutional Animal Care and Use Committee (IACUC, protocol numbers AUP-2022-00101 & AUP-2024-00337) at The University of Texas at Austin. Briefly, 6-8 weeks female BALB/c mice were acclimatized for 7 days thereafter, murine colon carcinoma cells, CT26 (1.5 x 10^6 cells in 100 μL of sterile PBS) were subcutaneously injected to the right flank. The experiments were initiated once tumors became palpable on Day 8. […] The animals were monitored for the development of pain or distress symptoms with the body weight and tumor size also being closely monitored. […] On day 16, mice were euthanized, and tumor and organs (liver, kidney, spleen, heart and lungs) were collected for ICP-MS metal quantification.

white blood cells = assay: Total and differential WBC manual count in challenge study; assay type: in vivo, BALB/c mice; details: mice injected with pretreated CT26 cells
From the text: To test this proposition, whole blood samples were collected from mice before vaccination (day ‐7), before challenge (day 0), and 7 days after challenge (day 7) as outlined in Figure 8a. The samples were subjected to a manual count of total white blood cell (WBC) using Tuerk staining and differential leukocytes (monocytes, lymphocytes, neutrophils, eosinophils, and basophils) using Wright staining (see Supporting Information). The results are summarized in Figure 8c as total WBC per µL (Figure 8c), differential percentages of monocytes (Figure 8d), and lymphocytes (Figure 8e) corresponding to an innate and adaptive immune response, respectively. The neutrophil, eosinophil, and basophil levels remained unchanged. […]
Blood samples were collected from all mice groups by tail vein and were analyzed for total WBC count and differential count.^9 Blood was draw on Day -7 (before vaccination), Day 0 (before rechallenge) and Day 7. Total WBC was analyzed by adding 2 µL of blood to 38 µL Tuerk solution (Sigma-Aldrich product - 93770) and was counted using a hemocytometer after 45 min under a 10x light microscope. […] 200 WBC cells were counted and classified under 1000x magnification using a Leica DMI6000b microscope.

CT26 challenge model = assay: In vivo CT26 vaccination/challenge model; design: species or system BALB/c mice; details: mice vaccinated with CT26 cells pretreated 24 h at IC50, challenged after 7 days
Protocol: Induction of an immunogenic response in vivo was determined using the established preclinical CT26 challenge model depicted in Figure 8a.^[ [33] ^] […] After 7 days, the mice were challenged with 5 x 10^5 naive CT26 cells injected into the left flank (challenge flank). Mice were monitored thereafter to assess the level, if any, of tumor development on the challenge (left) side. Monitoring was continued for 28 days. […] These are animals in which ICD induction was not expected. Tumor free survival was seen up to day 14 and up to day 21 in the doxorubicin and 1 + Oxa + 2 groups, respectively.
After 7 days, mice were inoculated s.c. with 5 x 10^5 naive CT26 cancer cells into the contralateral flank. Prior to all injections, the supernatant of one flask per harvest day was tested for mycoplasma contamination (MycoAlert™, Lonza, Rockland, ME), which yielded negative results on all days. Body weights and tumor measurements were checked daily, and tumor development was compared among groups.

COc1cccc2c1C(=O)c1c(O)c3c(c(O)c1C2=O)C[C@@](O)(C(=O)CO)C[C@@H]3O[C@H]1C[C@H](N)[C@H](O)[C@H](C)O1 [Doxorubicin, doxorubicin, reference compound]
Inhibition of Tumor Growth [1]: 40.8% | Inhibition of Tumor Growth ([1]; listed as doxorubicin): ~40% | total WBC count (white blood cells; day 0, trends retained through day 7): significant reduction in total WBC count | differential monocyte and lymphocyte percentages (white blood cells; days 0 and 7): transient increase in lymphocyte percentages | tumor free survival up to day (CT26 challenge model): ≤ 14 days
